According to ChEMBL document CHEMBL1158026, “New jaspamide derivatives from the marine sponge Jaspis splendans collected in Vanuatu” (J Nat Prod, 1999):
Converted amounts (≈) assume the structure as drawn.

Test: Cytotoxicity against human NSCLC-N6 cells by MTT assay
Format: functional, cell-based

**Q.** With `C=C1C[C@H](C)C(=O)N[C@@H](C)C(=O)N(C)[C@H](Cc2c(Br)[nH]c3ccccc23)C(=O)N[C@@H](c2ccc(O)cc2)CC(=O)O[C@@H](C)C[C@@H](C)C1O` (stereo partly drawn) [JASPAMIDE C] as the molecule, how does the IC50 read?
**A.** 1.1 µg/mL (≈ 1.52 µM)

**Q.** For `C/C1=C\[C@H](C)C[C@H](C)OC(=O)C[C@H](c2ccc(O)cc2)NC(=O)[C@@H](Cc2c(Br)[nH]c3ccccc23)N(C)C(=O)[C@H](C)NC(=O)[C@@H](C)C1` [JASPAMIDE], which IC50 is on record?
**A.** 0.36 µg/mL (≈ 0.507 µM)

**Q.** Which IC50 does the source give for `C=C1C[C@H](C)C(=O)N[C@@H](C)C(=O)N(C)[C@H](Cc2c(Br)[nH]c3ccccc23)C(=O)N[C@@H](c2ccc(O)cc2)CC(=O)O[C@@H](C)C[C@@H](C)C1=O` [JASPLAKINOLIDE B] here?
**A.** 3.3 µg/mL (≈ 4.56 µM)
